{"source": "patent US5811073A", "about": "“Method for radioisotopic detection and localization of inflammation in a host” (President and Fellows of Harvard College, priority 1995, dated 1998)", "key": {"[1]": {"test_system": "sterile inflammatory lesions (pus capsule; turpentine oil)", "assay": "Biodistribution (pus capsule to contralateral tissue ratio) in rats with sterile inflammation", "conditions": "for Pus Capsule and Contralateral Tissue (T/B) Ratio, biodistribution: sterile inflammation, i.v., 10 μCi/rat ^67 Ga (n=2), 5 μCi/rat ^125 IUdR (n=6), mean ± SD"}, "[2]": {"test_system": "sterile and bacterial inflammation", "conditions": "i.v., 200-300 μCi gallium-67 citrate, 300-500 μCi ^99m Tc-human serum albumin, 100-150 μCi ^111 In-IgG or ^125 I-IgG; cited from earlier work"}, "[3]": {"test_system": "sterile inflammatory lesions (pus capsule; turpentine oil)", "assay": "Gamma camera imaging of rats with sterile inflammation", "type": "in vivo, Male Sprague-Dawley rats", "conditions": "for Figure of Merit (FOM), equation (1): 0.2 mCi ^67 Ga-citrate; for Figure of Merit (FOM), equation (1) / Pus Capsule to Contralateral Tissue (T/B) Ratio, gamma camera imaging: 1.5 mCi/rat ^123 IUdR; for Figure of Merit (FOM), equation (1) / Pus Capsule to Contralateral Tissue (T/B) Ratio, gamma camera imaging / Figure of Merit (FOM), equation (2): n=4, mean ± SD; for Pus Capsule to Contralateral Tissue (T/B) Ratio, gamma camera imaging: 0.2 mCi/rat ^67 Ga", "description": "Male Sprague-Dawley rats weighing between 150-200g were obtained from the Charles River Breeding Laboratories in Burlington, Mass. […] To anaesthetize the animals during testing, ketamine (40 mg/kg) and xylazine (10 mg/kg) were administered intra peritoneally (1.0 ml/kg) prior to surgical procedures. For the imaging studies, each animal received 1.5 ml/kg of a mixture of ketamine (75 mg/kg), xylazine (39 mg/kg) and acepromazine (0.75 mg/kg).\nTo induce a localized sterile inflammation, 0.1 ml of turpentine oil (Rectified Turpentine Oil for medical use, Gentry Corporation, Fair Lawn, N.J.) was injected into the left thigh muscle of anesthetized rats.\nA further set of rats prepared as described in Examples 1 and 2 received intravenous injections of either ^123 IUdR (at a dose of about 1.5 mCi/rat) or gallium-67 citrate (at a dose of about 0.2 mCi/rat). After 1, 3 and 24 hours, rats from each group were anesthetized and imaged using a gamma camera (the General Electric STARCAM™ 400 fitted with parallel hole medium collimator). Anterior images were obtained 10^6 counts/frame except for the 24 h period for ^123 IUdR where a 15 min scan was carried out. A 20% window was present over the 159 keV photopeaks of ^67 Ga (93 kev, 184 keV, and 298 keV).\nRegions of interest (ROI) were drawn over the inflamed areas (3×4 pixel) and over the contralateral area in each rat. Total counts in these regions were used to calculate Target to Background (T/B) ratios and to calculate Figure of Merit (FOM; statistical significance) values using either of the following equations:\nFOM=(At -Ab)^2 /(At +Ab) (1)\nAt =counts in ROI (3×4) over pus capsule; and\nAb =counts in ROI (3×4) over contralateral muscle.\nEquation (1) is derived from the Report of the National Council on Radiation Protection and Measurements, Nuclear Medicine, \"Factors Influencing the Choice and Use of Radionuclides in Diagnosis and Therapy\", Report No. 70, p.79 (NRCP, Bethesda, Md., 1982). Equation (2) is derived from Rubin et al., J. Nucl. Med. 30:385-389, 1989. For purposes of reference, the disclosures of each of these publications is incorporated herein."}, "[4]": {"test_system": "bacterial (E. coli) inflammatory lesions (pus capsule)", "assay": "Biodistribution (pus capsule to contralateral tissue ratio) in rats with bacterial infection", "type": "in vivo", "conditions": "for Pus Capsule and Contralateral Tissue (T/B) Ratio, biodistribution: i.v., 10 μCi/rat ^67 Ga (n=2), 5 μCi/rat ^125 IUdR (n=5), mean ± SD", "description": "A frozen sample of E. coli bacteria (clinical isolate; ATCC 9339) was used to inoculate a 10 ml trypticase soy medium (trypticase soy broth, BBL #11768, 30 g/L water), and the tube was incubated overnight at […] This culture was used to grow single colonies by streaking the sample on agar plates (100 mm petri dishes each containing 15 ml of […] in the same medium). Good colonies develop in 10-11 hours at 37° C. The agar plates containing bacterial colonies were stored upside down at 4° C. A single colony of bacteria from the agar plate was used to inoculate 10 ml trypticase soy medium, and the tube was incubated overnight at 37° C. with vigorous shaking. Two ml of this overnight culture was transferred into 100 ml trypticase soy medium and the sample incubated at 37° C. with vigorous shaking until the culture reached an OD600 of ~0.8 (in about 2 hrs). This 100 ml culture contained ~6.4×10^10 bacterial cells (1 OD600 =8×10^8 cells/ml).\nThe culture was centrifuged at 5500 rpm for 5 min at 4° C. in a Sorvall SS-34 rotor, the bacterial pellet resuspended in saline to give ~2.5×10^9 bacteria/ml, and 0.1 ml of resuspended cells injected into the left thigh muscle of each anesthetized rat.\nNo-carrier added radioiodinated deoxyuridine (^125 IUdR) was synthesized by the method described in the above disclosure. Commercially available gallium-67 citrate of known biodistribution characteristics was obtained, for comparison to ^125 IUdR. 24 hrs after each rat described in Example 2 received an intramuscular injection of E. coli or after each rat described in Example 1 received an intramuscular injection of turpentine oil (to permit comparison of activity in a bacterial inflammation lesions to activity in a sterile inflammation lesions) in the left rear thigh, each rat received either ^125 IUdR (about 5 μCi/rat) or gallium-67 citrate (about 10 μCi/rat) suspended in 0.1 ml saline, by injection into the tail vein.\nAt one, three and 24 hrs after ^125 IUdR or gallium-67 citrate administration, the animals from each group were anesthetized, blood collected via cardiac puncture, urine aspirated from the urinary bladder, and the rats humanely sacrificed. The biodistribution of each radiopharmaceutical (measured as a function of the % injected dose/gram body weight) was then determined in various normal tissues and organs, as well as the left and right legs, the pus capsule formed within the leg and in contralateral muscle tissues (i.e., background tissues unaffected by inflammation) of equivalent weight.\nTo determine the distribution of each radiopharmaceutical in various tissues of each rat (i.e., the \"biodistribution\" of each radiopharmaceutical), samples of background tissues and organs (blood, lung, liver, spleen, kidney, muscle and intestine), of target tissue (the pus capsule formed in the leg) and of contralateral muscle tissue (background tissue adjacent to target tissue) were obtained from each rat and weighed. Radioactivity in each sample was measured in a well-type gamma counter (from LKB, Wallac Oy, Finland). To correct for radioactive decay and permit calculation of activity in each organ or tissue as a fraction of the injected dosage of radiopharmaceutical, aliquots of the injected doses were counted at the same time that radioactivity in each sample was determined. The results were measured as a function of the percentage of injected dose/gram (% ID/g). For further reference regarding measurements of biodistribution of radiopharmaceuticals, particularly in blood, those of ordinary skill in the art may wish to refer to Baker et al., \"The Laboratory Rat\" (Acad.Press N.Y., 1980).\nAb = %ID/g over contralateral muscle"}, "[5]": {"conditions": "intravenous; adult man; ^123 I-iodine thyroid blocked; cited from earlier work"}}}
{"smiles": "O=C([O-])CC(O)(CC(=O)[O-])C(=O)[O-].[67Ga+3]", "note": "[^67 Ga, gallium-67 citrate]", "values": [{"measurement": "concentration within lesion (pus capsule) vs contralateral tissues (in words)", "setting": "[1]; sterile inflammation (turpentine oil)", "value": "to a greater extent than in the contralateral tissues"}, {"measurement": "Pus Capsule and Contralateral Tissue (T/B) Ratio, biodistribution", "setting": "[1]; 3 h", "value": "3.55 ± 0.24"}, {"measurement": "Pus Capsule and Contralateral Tissue (T/B) Ratio, biodistribution", "setting": "[1]; 24 h", "value": "2.85 ± 0.64"}, {"measurement": "time of maximum target to background tissue ratio for image intensity", "setting": "[2]", "value": 3, "unit": "h"}, {"measurement": "detection of the lesion in scintigraphic images (in words)", "setting": "[3]; 1, 3, and 24 h, i.v.", "value": "can clearly detect the lesion"}, {"measurement": "Figure of Merit (FOM), equation (1)", "setting": "[3]; 1 h, i.v.", "value": "1037 ± 215"}, {"measurement": "Pus Capsule to Contralateral Tissue (T/B) Ratio, gamma camera imaging", "setting": "[3]; 1 h, i.v.", "value": "2.76 ± 0.18"}, {"measurement": "Figure of Merit (FOM), equation (2)", "setting": "[3]; 1 h, i.v.", "value": "1.75 ± 0.2"}, {"measurement": "Figure of Merit (FOM), equation (1)", "setting": "[3]; 3 h, i.v.", "value": "1581 ± 143"}, {"measurement": "Pus Capsule to Contralateral Tissue (T/B) Ratio, gamma camera imaging", "setting": "[3]; 3 h, i.v.", "value": "3.61 ± 0.15"}, {"measurement": "Figure of Merit (FOM), equation (2)", "setting": "[3]; 3 h, i.v.", "value": "2.61 ± 0.18"}, {"measurement": "efficacy by imaging T/B ratio, comparison of agents (in words)", "setting": "[3]; 3 hrs", "value": "equal"}, {"measurement": "Figure of Merit (FOM), equation (1)", "setting": "[3]; 24 h, i.v.", "value": "1958 ± 149"}, {"measurement": "Pus Capsule to Contralateral Tissue (T/B) Ratio, gamma camera imaging", "setting": "[3]; 24 h, i.v.", "value": "5.09 ± 0.44"}, {"measurement": "Figure of Merit (FOM), equation (2)", "setting": "[3]; 24 h, i.v.", "value": "4.09 ± 0.50"}, {"measurement": "imaging T/B ratios, comparison of agents (in words)", "setting": "[3]; by 24 hrs", "value": "higher T/B ratios"}, {"measurement": "FOM values, comparison of agents (in words)", "setting": "[3]; later time points (3 hrs and 24 hrs)", "value": "equal or higher FOM values"}, {"measurement": "concentration within lesion (pus capsule) vs contralateral tissues (in words)", "setting": "[4]; bacterial (E. coli) inflammation", "value": "to a greater extent than in the contralateral tissues"}, {"measurement": "Pus Capsule and Contralateral Tissue (T/B) Ratio, biodistribution", "setting": "[4]; bacterial infection, 3 h", "value": "3.21 ± 0.13"}, {"measurement": "Pus Capsule and Contralateral Tissue (T/B) Ratio, biodistribution", "setting": "[4]; bacterial infection, 24 h", "value": "4.07 ± 1.09"}, {"measurement": "time of accumulation at the site of inflammation (in words)", "setting": "[4]; bacterial infection, FIGS. 1 and 5", "value": "did not accumulate at the site of inflammation until several hours after its administration"}, {"measurement": "whole body effective dose", "setting": "[5]", "value": 0.44, "unit": "rad/mCi"}]}
